{
  "source": "patent US20230346735A1",
  "about": "“Nutritional Composition Comprising Carnitine and Method for Treating or Preventing an Infection in a Mammal” (priority 2020, published 2023)",
  "key": {"[1]": {"test_system": "malondialdehyde", "test": "Antioxidant capacity: malondialdehyde in exercised rats", "assay_type": "in vivo, rat", "details": "6 weeks", "procedure": "Fifty-six (56) Male Wistar rats that were 8-week old were obtained. The rats were reared at the temperature of 22 ± 2° C., the humidity of 55 ± 5%, and with a 12-hrs light-12-hrs dark cycle. All procedures involving rats were conducted in strict compliance with the relevant laws, the Animal Welfare Act, Public Health Services Policy, and guidelines established by the Institutional Animal Care and Use Committee of the Institute of the contracted University which completed the study.\n(§1) After a week of the adaptation period, the rats were divided into eight equal groups containing seven rats each. The initial body weights of the rats were similar in all the groups (214.53 grams ± 4.67; P > 0.05).\n(§2) Groups 1 and 2 were not subjected to an exercise routine. Groups 3-8 were subjected to an exercise regimen consisting of a week training period with an incremental exercise capacity described below. After the week training period the exercise regimen followed was each rat in Groups 3-8 were subjected to 6 weeks of running at 25 m/min during 45 min […]. […] These correspond to 0, 250, 500, 1000, 2000 and 4000 mg per day for humans, respectively.\nThe exercised rats were subjected to treadmill exercise on a motorized rodent treadmill (Commat Limited, Ankara, Turkey). The treadmill contained a stimulus grid at the back end of the treadmill giving an electric shock when the animal placed its paw on the grid. […] To eliminate the diurnal variations, all exercise tests were applied during the same time of the day. The week of training period was provided as pre-training practice for the animals to get familiar with the treadmill equipment and handling. In doing so, the rats in the exercise training groups were accustomed by treadmill exercise over 5 days such that: (i) 1st day, 10 m/min for 10 min, (ii) 2nd day, 20 m/min for 10 min, (iii) 3rd day, 25 m/min for 10 min, (iv) 4th day, 25 m/min for 20 min and (v) 5th day, 25 m/min for 30 min. After the training period, the rats in treadmill exercise groups ran on the treadmill 25 m/min for 45 min/ per day and five days per week for 6 weeks according to the protocol described by Sahin et al. Capsaicinoids Improve the Consequences of Physical Activity. Toxicol Rep. 2018;5:598-607, which is hereby incorporated by reference.\nThe exercise regimen was used to induce an inflammation and oxidative stress conditions. […] The results of malondialdehyde, superoxide dismutase, catalase, and glutathione peroxidase for each rat group are shown in TABLE 2."}, "[2]": {"test_system": "Furin", "test": "Furin protein and mRNA in rat tissue samples", "assay_type": "in vivo", "details": "exercised rats", "from_the_text": "as §1, §2\nTo determine the protein accumulation in the liver, muscle and lung samples, a Western Blotting test was used. Each of the tissue samples of the same group were pooled, homogenized, and sonicated in lysis buffer supplemented with 1X protease and phosphatase inhibitor cocktail (#5872, Cell Signaling). Total protein content was detected with Qubit 2.0 Fluorometer according to the manufacturer’s protocol (Invitrogen, Life Technologies Corporation, Carlsbad, CA, USA). […] Protein levels were analyzed densitometrically using an image analysis system (Image J; National Institute of Health, Bethesda, MD, USA), corrected with values determined on β-actin blots and expressed as relative values compared with the control group. […]"}, "[3]": {"test_system": "ACE-2", "test": "Rat plasma serum ELISA, ACE-2", "assay_type": "in vivo", "details": "exercised rats, FIG. 5B"}, "[4]": {"test_system": "Calu-3 cells", "assay_type": "cell-based, human", "details": "Calu-3, 50 uM to 10 mM, 24 h, 48 h or 72 h", "procedure": "Calu-3 cells were maintained in 50% DMEM (Dulbecco’s Modified Eagle Medium) + 50% Ham’s F12 media supplemented with 10% FBS (fetal bovine serum) and 1% penicillin/streptomycin. Vero E6 cells were maintained in DMEM media supplemented with 10% FBS and 1% penicillin/streptomycin.\nCalu-3 seeded in a 96-well plate (30,000 cells) were stimulated with 50 uM, 100 uM, 250 uM, 500 uM, 1 mM and 10 mM Carnitine alone. At 24 h, 48 h or 72 h post stimulation, media was removed and cells were subjected to a standard MTT assay."}, "[5]": {"test_system": "ACE-1", "test": "ACE-1 mRNA expression in Calu-3, RT real-time PCR", "assay_type": "cell-based, human", "details": "Calu-3, 50 to 1,000 uM, 24 hr pre-treatment"}, "[6]": {"test_system": "Furin", "test": "Furin mRNA expression in Calu-3, RT real-time PCR", "assay_type": "cell-based, human", "details": "Calu-3, 50 to 1,000 uM, 24 hr pre-treatment"}, "[7]": {"test_system": "SARS-CoV-2", "test": "microbe, parasite or virus in culture", "assay_type": "cell-based"}},
  "note": "Marks after values point to notes of the source that are not given here.",
  "data": [
    {"compound": "C[N+](C)(C)C[C@H](O)CC(=O)[O-]", "note": "[L-carnitine]", "values": [
      {"measurement": "MDA", "setting": "[1]; Car200: 200 mg/kg oral gavage, no exercise", "result": "0.693±0.021^b µmol/L"},
      {"measurement": "MDA", "setting": "[1]; Ex+Car25: exercise, 25 mg/kg oral gavage", "result": "0.599±0.021^c µmol/L"},
      {"measurement": "MDA", "setting": "[1]; Ex+Car50: exercise, 50 mg/kg oral gavage", "result": "0.549±0.014^cd µmol/L"},
      {"measurement": "MDA", "setting": "[1]; Ex+Car100: exercise, 100 mg/kg oral gavage", "result": "0.553±0.018^cd µmol/L"},
      {"measurement": "MDA", "setting": "[1]; Ex+Car200: exercise, 200 mg/kg oral gavage", "result": "0.489±0.019^de µmol/L"},
      {"measurement": "MDA", "setting": "[1]; Ex+Car400: exercise, 400 mg/kg oral gavage", "result": "0.419±0.009^e µmol/L"},
      {"measurement": "Furin mRNA levels", "setting": "[2]; tissues, versus exercise control", "result": "dose-dependent decrease"},
      {"measurement": "Furin protein level", "setting": "[2]; western blotting", "result": "return to the baseline control"},
      {"measurement": "serum ACE-2", "setting": "[3]", "result": "reduction"},
      {"measurement": "cytotoxicity (MTT)", "setting": "[4]", "result": "did not show any cytotoxic properties"},
      {"measurement": "ACE-1 mRNA levels", "setting": "[5]", "result": "didn’t not change"},
      {"measurement": "Furin expression levels", "setting": "[6]", "result": "did not show any effect"},
      {"measurement": "virus growth (plaque assay)", "setting": "[7]", "result": "successful at inhibiting virus growth"},
      {"measurement": "IC50", "setting": "[7]; Severe acute respiratory syndrome coronavirus 2, Calu-3, read-out: IC50, inhibition of Calu-3 infection", "result": 139, "unit": "µM"}
    ]}
  ]
}
